“And” between values parts separate entries of the source, which are not always exact repeats. Identical values can stand only once.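 Step 1: Grow cells in 96-well plates. Step 2: Expose to compound for 48 hours at 5 concentrations. Step 3: Interpolate endpoints linearly; if unreached, use highest concentration. Abbreviation: GI50, concentration required for 50% inhibition of growth. TGI is the concentration that stops growth completely.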
Key:
Assay in all cases: DTP human tumour cell line panel, 48 h
786-0 renal = tested on: 786-0 renal
CCRF-CEM leukemia = tested on: CCRF-CEM leukemia
COLO 205 colon = tested on: COLO 205 colon
HCT-15 colon = tested on: HCT-15 colon
HOP-62 NSCLC = tested on: HOP-62 NSCLC
KM12 colon = tested on: KM12 colon
LOX IMVI melanoma = tested on: LOX IMVI melanoma
MOLT-4 leukemia = tested on: MOLT-4 leukemia
OVCAR-8 ovarian = tested on: OVCAR-8 ovarian
SR leukemia = tested on: SR leukemia

Structure (SMILES)	TGI (786-0 renal) [µM]	TGI (CCRF-CEM leukemia) [µM]	TGI (COLO 205 colon) [µM]	TGI (HCT-15 colon) [µM]	TGI (HOP-62 NSCLC) [µM]	TGI (KM12 colon) [µM]	TGI (LOX IMVI melanoma) [µM]	TGI (MOLT-4 leukemia) [µM]	TGI (OVCAR-8 ovarian) [µM]	GI50 (786-0 renal) [µM]	GI50 (CCRF-CEM leukemia) [µM]	GI50 (COLO 205 colon)	GI50 (HCT-15 colon)	GI50 (HOP-62 NSCLC) [µM]	GI50 (KM12 colon)	GI50 (LOX IMVI melanoma)	GI50 (MOLT-4 leukemia)	GI50 (OVCAR-8 ovarian)	GI50 (SR leukemia) [µM]	TGI (SR leukemia) [µM]
N#CC1=C(c2ccccc2)OC2(N)OC(c3ccccc3)=C(C#N)C12C#N (configuration not stated)	> 100	> 100	> 100	> 100	> 100	> 100	> 100	> 100	> 100	–	–	–	–	–	–	–	–	–	–	–
COC(=O)[C@H](CCCCNC(=O)OCc1ccccc1)NC(=O)[C@@H](NC(=O)Nc1cc(C(F)(F)F)cc(C(F)(F)F)c1)C(C)C	> 10	> 10	> 10	> 10	> 10	> 10	> 10	> 10	> 10	> 10	> 10	> 10 µM	> 10 µM	> 10	> 10 µM	> 10 µM	> 10 µM	> 10 µM	> 10	> 10
COc1cccc(-c2nn(-c3ccccc3)cc2-c2ccnc(NCCCNS(=O)(=O)c3ccc(C(F)(F)F)cc3)c2)c1	> 100	> 100	7.77	> 100	> 100	> 100	> 100	–	> 100	4.6	5.07	2.5 µM	4.08 µM	13.8	4.02 µM	4.86 µM	–	7.13 µM	1.67	4.84
O=C(c1ccc(Nc2nccc(NCCCCNc3ccnc4cc(Cl)ccc34)n2)cc1)N1CCCCC1	2.82	> 100	3.25	6.43	6.02	11	2.33	5.99	8.74	1.46	1.48	1.52 µM	1.69 µM	2.24	2.94 µM	0.971 µM	1.74 µM	2.63 µM	0.219	1.5
NC(Cc1c[nH]c2cccc(F)c12)C(=O)O (configuration not stated)	894	> 4500	944	2870	3180	> 4500	982	> 4500	2820	124	–	43.6 µM and 302 µM	61.6 µM and 266 µM	–	25.2 µM and 230 µM	51.6 µM and 211 µM	41.7 µM and 338 µM	72.5 µM and 522 µM	–	> 4500
O=C(OCc1ccccc1)n1cccc1	> 100	> 100	> 100	–	> 100	> 100	> 100	> 100	> 100	–	–	–	–	–	–	–	–	–	–	> 100
CCC(C(=O)[C@@H](C)[C@@H](O)[C@H](C)[C@@H]1O[C@@H]([C@@H](CC)C(=O)ONC(=O)c2ccccc2)CC[C@@H]1C)[C@H]1O[C@]2(C=CC(=O)[C@]3(CC[C@@](C)([C@H]4CC[C@](O)(CC)[C@H](C)O4)O3)O2)[C@H](C)C[C@@H]1C (some centres not stated)	2.26	1.95	1.78	1.61	1.95	2.94	1.84	3.32	2.77	0.981	0.12	0.122 µM	0.349 µM	0.161	0.592 µM	0.316 µM	0.729 µM	0.251 µM	0.0674	0.617
CC[Si](CC)(CC)OC1[C@@H](O[Si](CC)(CC)CC)[C@@H](CNC(=O)NC)O[C@H]1n1cnc2c(NC(=O)Nc3ccccc3)ncnc21 (some centres not stated)	10.7	9.18	3.62	> 100	> 100	9.5	7.85	–	> 100	2.96	3.02	2.09 µM	3.78 µM	16	3.26 µM	2.61 µM	–	3.89 µM	2.36	5.2
CC1(C)CC[C@]2(CO)CC[C@]3(C)C(=CC[C@@H]4[C@@]5(C)CCNCC(C)(C)[C@@H]5CC[C@]43C)[C@@H]2C1	15	23.1	4	6.26	15.3	12.2	5.52	18.7	24.8	3.8	5.47	1.9 µM	2.16 µM	3.65	3.32 µM	2.45 µM	4.41 µM	4.77 µM	–	–
O=C(CCl)Nc1ccc(Cc2ccc(NC(=O)CCl)cc2)cc1	5.1	3.01	4.12	–	6.1	3.17	2.35	6.32	> 100	2.09	0.47	1.97 µM	–	2.38	1.57 µM	0.784 µM	1.44 µM	3.17 µM	0.704	5.56
O=C(Nc1ccc(Cl)cc1)N1CCN(c2ccc3nncn3n2)CC1	> 100	–	> 100	> 100	> 100	> 100	> 100	69.6	> 100	> 100	–	51.6 µM	30.2 µM	> 100	52.9 µM	92.4 µM	23.8 µM	69.7 µM	24.5	> 100
O=C(Nc1cc2cc([N+](=O)[O-])ccc2oc1=O)c1cccs1	> 100	78.3	85.2	–	> 100	72.9	> 100	> 100	> 100	–	–	–	–	–	–	–	–	–	–	> 100
Nc1ncnc2c1ncn2CCCCC(=O)O	> 100	–	> 100	> 100	> 100	> 100	> 100	> 100	> 100	–	–	–	–	–	–	–	–	–	–	> 100
c1ccc(/C(=N\Nc2nc3ccccc3s2)c2ccccn2)cc1	24.4	1.07	16.9	> 100	97.8	> 100	42.4	4.17	> 100	–	–	–	–	–	–	–	–	–	–	–
Cc1ccc2c(c1)C(O)(c1ccccc1)CCS2 (configuration not stated)	> 100	–	> 100	42.4	> 100	54.9	36	44.7	> 100	–	–	–	–	–	–	–	–	–	–	40.3
Oc1cc(O)c2c(c1)OC(c1ccc(O)c(O)c1)C(O)C2c1c(O)cc(O)c2c1OC(c1ccc(O)c(O)c1)C(O)C2 (configuration not stated)	> 100	–	> 100	> 100	> 100	> 100	> 100	–	> 100	–	–	–	–	–	–	–	–	–	–	–

Structure (SMILES)	TGI (786-0 renal) [µM]	TGI (CCRF-CEM leukemia) [µM]	TGI (COLO 205 colon) [µM]	TGI (HCT-15 colon) [µM]	TGI (HOP-62 NSCLC) [µM]	TGI (KM12 colon) [µM]	TGI (LOX IMVI melanoma) [µM]	TGI (MOLT-4 leukemia) [µM]	TGI (OVCAR-8 ovarian) [µM]	GI50 (786-0 renal) [µM]	GI50 (CCRF-CEM leukemia) [µM]	GI50 (COLO 205 colon)	GI50 (HCT-15 colon)	GI50 (HOP-62 NSCLC) [µM]	GI50 (KM12 colon)	GI50 (LOX IMVI melanoma)	GI50 (MOLT-4 leukemia)	GI50 (OVCAR-8 ovarian)	GI50 (SR leukemia) [µM]	TGI (SR leukemia) [µM]
CC(C)(C)OC1=C(OC(C)(C)C)C(O)(c2ccc(Cl)cc2)C1=O (configuration not stated)	> 100	> 100	> 100	> 100	–	> 100	> 100	> 100	> 100	–	–	–	–	–	–	–	–	–	–	> 100
CCN(CC)CCCC(C)Nc1ccnc(/C=C/c2ccc(Cl)cc2)c1 (configuration not stated)	3.45	> 19.7	3.01	6.35	4.11	7.39	3.28	–	7.57	–	–	–	–	–	–	–	–	–	–	> 27.2
CN(C)CCNC(=O)c1cccc2c1nc(-c1ccncc1)c1ccccc12	17.8	> 100	9.66	13.4	19.5	25.6	3.66	> 100	41.9	–	–	–	–	–	–	–	–	–	–	–
CC(=O)[CH-]C(=O)c1ccccc1.CC(=O)[CH-]C(=O)c1ccccc1.CC(=O)[CH-]C(=O)c1ccccc1.[Br-].[Zr+4]	> 100	> 100	> 100	> 100	> 100	> 100	> 100	> 100	> 100	67.1	22.3	> 100 µM	89.7 µM	64	> 100 µM	89.7 µM	47.2 µM	> 100 µM	–	–
Cc1ccc(/C(=C/C=C(C#N)C#N)Sc2nc3ccccc3s2)cc1	6.78	3.02	16	–	30.3	28.9	–	> 100	65.6	2.43	0.465	3.84 µM	–	10.1	4.72 µM	–	> 100 µM	4.35 µM	> 100	> 100
COc1ccc(C(Nc2ccccn2)c2cc(C(C)(C)C)cc(C(C)(C)C)c2O)cc1 (configuration not stated)	> 100	–	50	> 100	78.2	63.8	35.8	–	> 100	–	–	–	–	–	–	–	–	–	–	> 100
COc1ccc(NC(=O)c2cccc(C3CCc4c(cc(OC)c(OC)c4OC)O3)c2)cc1 (configuration not stated)	> 100	> 100	6.67	> 100	> 100	> 100	> 100	–	> 100	4.18	1.6	2.39 µM	1.96 µM	2.86	3.49 µM	3.94 µM	–	3.1 µM	0.419	> 100
N/C(=N/S(=O)(=O)c1cc(C(=O)Nc2ccc(F)cc2)c(Cl)cc1SCc1ccccc1)Nc1ccccc1O	6.01	3.79	> 100	> 100	4.52	3.33	3.41	2.99	4.14	2.3	1.81	4.1 µM	37.1 µM	2.04	1.79 µM	1.76 µM	1.55 µM	1.92 µM	–	–
CCOP(=O)(OCC)C(NC(c1ccccc1)c1ccccc1)c1ccc(C(C)C)cc1 (configuration not stated)	18.9	25.5	–	13.1	18.8	17.2	16	4.25	19.5	5.6	3.39	–	3.22 µM	6.08	4.8 µM	4.33 µM	1.71 µM	5.04 µM	–	–
CCOC(=O)CCSC1=CC(=O)c2nc3ccccc3c3ccnc1c23	39.3	> 100	> 100	92.9	47.7	34.1	> 100	> 100	–	17.5	3.44	24.9 µM	24.8 µM	16.4	15 µM	27 µM	7.31 µM	–	7.59	> 100
COc1cc(NCCC2CCCCN2)c2ncccc2c1OC (configuration not stated)	36.9	–	24.2	85.5	32.4	33.5	5.49	–	59.2	14.5	–	10 µM	21.2 µM	17.3	14.9 µM	1.95 µM	–	6.49 µM	–	–
O=C1CCc2ccc(O)c(c2)Oc2ccc(cc2)[C@@H]2O[C@@H]2CO1	> 100	> 100	> 100	–	> 100	> 100	> 100	> 100	> 100	–	–	–	–	–	–	–	–	–	–	> 100
CCc1cccc(NC(=O)c2cc(/C=C/c3ccccc3)[nH]c(=S)n2)c1	> 100	> 100	> 100	> 100	> 100	> 100	–	> 100	> 100	–	–	–	–	–	–	–	–	–	–	> 100
CCc1ccccc1NC(=O)C(=O)C(C#N)c1c(Cl)cccc1Cl (configuration not stated)	> 100	> 100	–	> 100	–	> 100	> 100	> 100	–	–	–	–	–	–	–	–	–	–	–	> 100
CCN(CC)CCCNc1cc(OC)c(OC)c2cccnc12	31.3	–	23.2	49.8	21.4	31	34.4	8.88	35.5	12	–	10 µM	14.1 µM	2.04	13 µM	2.22 µM	3.27 µM	13.3 µM	1.22	> 100
CCOC(=O)c1ccc(NC(=O)c2cccc(NC3=C(Cl)C(=O)N(Cc4ccccc4)C3=O)c2)cc1	> 100	65.9	> 100	> 100	> 100	> 100	> 100	99.2	> 100	> 100	15.7	> 100 µM	> 100 µM	> 100	> 100 µM	60.3 µM	28.1 µM	> 100 µM	–	–
